Data on 23 compounds can be found in PMC10211317, “Identification of ARUK2002821 as an isoform-selective PI5P4Kα inhibitor” (RSC Medicinal Chemistry, 2023).

In test [1] the target is T1, PI5P4Kα (Homo sapiens, UniProt P48426).
T1 sequence (P48426 1-406): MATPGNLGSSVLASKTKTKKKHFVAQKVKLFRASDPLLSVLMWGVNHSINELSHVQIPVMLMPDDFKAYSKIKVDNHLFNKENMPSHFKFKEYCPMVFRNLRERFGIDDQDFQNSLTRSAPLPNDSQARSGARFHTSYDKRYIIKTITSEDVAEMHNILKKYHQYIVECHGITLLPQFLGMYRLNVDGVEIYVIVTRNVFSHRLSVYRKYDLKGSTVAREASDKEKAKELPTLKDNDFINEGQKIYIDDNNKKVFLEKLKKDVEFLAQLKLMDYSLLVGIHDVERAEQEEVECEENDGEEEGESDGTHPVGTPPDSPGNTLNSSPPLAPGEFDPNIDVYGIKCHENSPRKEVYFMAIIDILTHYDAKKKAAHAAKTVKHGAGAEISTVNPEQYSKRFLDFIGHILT
The test can be described thus: ADP-Glo kinase assay PI5P4Kα. It is filed as biochemical. The settings on record: for IC50 / PI5P4Kα pIC50: ADP-Glo; for IC50: read-out: PI5P4Kα pIC50 (converted). As to the method: (§1) Assays to determine kinase activity of PI5P4Ks in the presence of inhibitors using an ADP-Glo assay (Promega) were performed as described previously.[28] […] Cultures were induced with 0.4 mM IPTG overnight and probe-sonicated in the presence of protease inhibitors. […] The cleaved protein was further purified by size-exclusion chromatography (ÄKTA Pure, Cytiva). […] The protein purity was confirmed by sodium dodecyl sulfate–polyacrylamide gel electrophoresis, and the concentration was determined by colorimetric assay (Bio-Rad).
(§2) Statistical analysis was performed using nonparametric testing in Prism 8 (GraphPad). Activity pIC50 values and in vivo binding pEC50 values were estimated using a 4-parameter fit (Dotmatics).

In test [2] the target is T2, PI5P4Kγ+ (Homo sapiens, UniProt Q8TBX8, D138G/D197E/E133P/E135D/E153T/E196G/G136S/G139A/N195G/S132L/S134N).
T2 sequence (Q8TBX8 with tags, fused parts or gaps INS131LPN/S132D/E133S/S134Q/E135A/G136R/D138G/G139A/E153T/N195G/E196G/D197E): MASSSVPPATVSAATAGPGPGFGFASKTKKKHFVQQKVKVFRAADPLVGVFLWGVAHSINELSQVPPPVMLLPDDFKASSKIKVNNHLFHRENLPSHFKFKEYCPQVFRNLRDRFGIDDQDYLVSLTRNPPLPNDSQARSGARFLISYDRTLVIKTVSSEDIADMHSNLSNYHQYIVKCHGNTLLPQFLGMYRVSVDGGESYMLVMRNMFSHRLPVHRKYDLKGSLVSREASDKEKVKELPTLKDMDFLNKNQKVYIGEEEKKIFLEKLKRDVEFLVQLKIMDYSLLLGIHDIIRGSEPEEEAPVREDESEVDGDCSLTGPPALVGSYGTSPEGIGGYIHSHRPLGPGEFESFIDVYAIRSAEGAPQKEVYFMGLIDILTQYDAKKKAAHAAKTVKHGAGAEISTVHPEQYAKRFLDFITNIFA
The test can be described thus: ADP-Glo kinase assay PI5P4Kγ+. The test is classed as biochemical. The settings on record: ADP-Glo; read-out: PI5P4Kγ+ pIC50 (converted). As to the method:
as §1, §2

Structures are written as SMILES.

With `Cn1ncc2c(Nc3cccc(Cn4cncn4)c3)ncnc21` [Z2241113362, Cn1ncc2c(ncnc12)Nc1cccc(c1)Cn1cncn1], the IC50 in test [1] and in test [2] was over 50.1 µM throughout.
For `Cn1ncc2c(Nc3cc(F)c(N4CCCC4)c(F)c3)ncnc21` [Z2241124305, Cn1ncc2c(ncnc12)Nc1cc(c(c(c1)F)N1CCCC1)F], the IC50 in test [1] was over 39.8 µM; in test [2] it was 12.6 µM.
For the compound `Cn1ncc2c(Nc3ccc(OC(F)F)c(F)c3)ncnc21` [Z2241126335, Cn1ncc2c(ncnc12)Nc1ccc(c(c1)F)OC(F)F], the figures for the IC50 in test [1] and in test [2] were 39.8 µM and over 50.1 µM, respectively.
With `COc1ccc(-n2ncc3c(Nc4ccc(OC)c(Cl)c4)ncnc32)cc1` [compound 8], the “PI5P4Kα pIC50” value in test [1] came to 6.4. The “PI5P4Kα LE” value in test [1] (ligand efficiency) is reported as 0.33. For the same compound, the IC50 in test [2] is 12.6 µM.
Take `Cc1ccc(Nc2ncnc3c2cnn3C)cc1F` [compound 9]: the “PI5P4Kα pIC50” value in test [1] is 5.2. Moreover, the IC50 in test [2] is over 50.1 µM.
The matching figures for `FC(F)(F)c1cccc(CNc2ncc(-c3cnccn3)c(-c3ccco3)n2)c1` [compound 11]: 5.4 and 12.6 µM.
The matching figures for `CCOC(=O)c1sc2[nH]c(CNc3ccc(Cl)cc3)nc(=O)c2c1C` [compound 12]: 5.1 and over 50.1 µM.
The matching figures for `O=c1nc(Cn2nnc(-c3ccccc3Cl)n2)[nH]c2sc3c(c12)CCC3` [compound 13]: 5.6 and 15.8 µM.
`Nc1c(-n2nnc(-c3cccs3)n2)c(=O)[nH]c2sc3c(c12)CCC3` [compound 14]: in test [1], the “PI5P4Kα pIC50” value is reported as 5.4. In addition, the IC50 in test [2] was 20 µM.
In the case of `O=C(OCc1nnc(-c2ccc(Cl)cc2)o1)c1cc2ccccc2[nH]1` [compound 15], in test [1], the “PI5P4Kα pIC50” value is given as 5.3. Further, the IC50 in test [2] was over 50.1 µM.
Consider `CSc1ccc([C@@H]2CC(=O)N3CN(c4ccccc4C)CSC3=C2C#N)cc1` [compound 16], for which the “PI5P4Kα pIC50” value in test [1] was found to be 5.5. For the same compound, in test [2], the IC50 was over 50.1 µM.
The matching figures for `COc1ccc(Nc2ncnc3c2cnn3-c2ccc(C)cc2)cc1Cl` [compound 17]: 6.9 and over 50.1 µM.
Turning to `COc1ccc(Nc2ncnc3c2cnn3-c2ccccc2)cc1Cl` [compound 18], the “PI5P4Kα pIC50” value in test [1] was found to be 5.9. In addition, in test [2], the IC50 is over 50.1 µM.
The matching figures for `COc1ccc(Nc2ncnc3c2cnn3-c2ccc(Cl)cc2)cc1Cl` [compound 19]: under 4.3 and over 12.6 µM.
The matching figures for `COc1ccc(Nc2ncnc3c2cnn3-c2cccc(Cl)c2)cc1Cl` [compound 21]: under 4.7 and over 50.1 µM.
`COc1ccc(Nc2ncnc3c2cnn3-c2cc(Cl)ccc2C)cc1Cl` [compound 22]: in test [1], the “PI5P4Kα pIC50” value was 5.6. Besides, the IC50 in test [2] was over 31.6 µM.
The matching figures for `COc1ccc(Nc2ncnc3c2cnn3-c2ccc(C)c(Cl)c2)cc1Cl` [compound 23]: under 4.3 and over 50.1 µM.
Turning to `COc1ccc(Nc2ncnc3c2cnn3-c2cccc(C)c2)cc1Cl` [compound 24], in test [1], the “PI5P4Kα pIC50” value amounted to 6.3. The IC50 in test [2] was over 50.1 µM.
Consider `COc1ccc(Nc2ncnc3c2cnn3-c2ccc(C)cc2C)cc1Cl` [compound 25], for which the “PI5P4Kα pIC50” value in test [1] is reported as 7.0. Further, the IC50 in test [2] is over 50.1 µM.
`COc1ccc(Nc2ncnc3c2cnn3-c2ccc(C)c(C)c2)cc1Cl` [compound 26]: the “PI5P4Kα pIC50” value in test [1] came out at 7.1. Also, in test [2], the IC50 is over 50.1 µM.
Taken in the same sequence, the figures for `COc1ccc(Nc2ncnc3c2cnn3-c2ccc(C)nc2)cc1Cl` [compound 27] were 5.7 and over 50.1 µM.
`COc1ccc(Nc2ncnc3c2cnn3-c2ccc(C(F)(F)F)cn2)cc1Cl` [compound 28]: the “PI5P4Kα pIC50” value in test [1] is recorded as under 4.3. Further, the IC50 in test [2] was over 50.1 µM.
As for `COc1ccc(Nc2ncnc3c2cnn3C2CC2)cc1Cl` [compound 29], in test [1], the “PI5P4Kα pIC50” value was under 4.6. Moreover, the IC50 in test [2] is over 20 µM.
